Experimental findings from US20040127492A1 (Pharmacia Corporation, priority 2002, published 2004) are described below.

What is called IC50 is the concentration that inhibits the measured activity by half.

Sequence of MAPKAPK2 (MK-2) (P49137 whole entry, species assumed): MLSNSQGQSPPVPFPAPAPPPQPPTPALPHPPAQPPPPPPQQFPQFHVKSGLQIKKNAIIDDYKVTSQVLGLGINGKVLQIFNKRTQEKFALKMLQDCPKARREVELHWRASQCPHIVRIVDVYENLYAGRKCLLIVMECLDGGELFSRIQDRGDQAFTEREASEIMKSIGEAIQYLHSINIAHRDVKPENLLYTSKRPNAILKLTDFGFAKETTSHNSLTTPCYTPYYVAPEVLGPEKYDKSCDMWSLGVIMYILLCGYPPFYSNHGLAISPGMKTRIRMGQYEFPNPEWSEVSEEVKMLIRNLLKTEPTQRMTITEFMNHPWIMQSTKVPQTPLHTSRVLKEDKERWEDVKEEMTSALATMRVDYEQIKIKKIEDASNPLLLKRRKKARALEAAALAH

The test deals with MAPKAPK2 (MK-2) (Homo sapiens, UniProt P49137). Put plainly: Determination of MK-2 IC50 (HSP-peptide phosphorylation, anion exchange resin capture assay). In kind it is biochemical. The conditions noted are these: read-out: MK-2 Avg. IC50. Here is the method: Determination of MK-2 IC50:
Recombinant MAPKAPK2 was phosphorylated at a concentration of 42-78 μM by incubation with 0.23 μM of active p38α in 50 mM HEPES, 0.1 mM EDTA, 10 mM magnesium acetate, and 0.25 mM ATP, pH 7.5 for one hour at 30° C.
The phosphorylation of HSP-peptide ([…]) by MAPKAPK2 was measured using an anion exchange resin capture assay method. The reaction was carried out in 50 mM β-glycerolphosphate, 0.04% BSA, 10 mM magnesium acetate, 2% DMSO and 0.8 mM dithiotheritol, pH 7.5 in the presence of the HSP-peptide with 0.2 μCi [γ^33P]ATP and 0.03 mM ATP. The reaction was initiated by the addition of 15 nM MAPKAPK2 and was allowed to incubate at 30° C. for 30 min. The reaction was terminated and [γ^33P]ATP was removed from solution by the addition of 150 μl of AG 1×8 ion exchange resin in 900 mM sodium formate pH 3.0. A 50 μl aliquot of head volume was removed from the quenched reaction mixture and added to a 96-well plate, 150 μl of Microscint-40 (Packard) was added and the amount of phosphorylated-peptide was determined. Allow the Microscint to sit in the plates for 60 minutes prior to counting.
Compounds are evaluated as potential inhibitors of the MK-2 kinase by measuring their effects on MK-2 phosphorylation of the peptide substrate. Compounds may be screened initially at two concentrations prior to determination of IC50 values. Screening results are expressed as percent inhibition at the concentrations of compound tested. For IC50 value determinations, Compounds are tested at six concentrations in ten-fold serial dilutions with each concentration tested in triplicate. Results are expressed as IC50 values in micromolar. The assay is performed at a final concentration of 2% DMSO.
For `CS(=O)(=O)NCCCn1nc2c(c1C(=O)O)CCc1cnccc1-2` [Example 196], the IC50 was 28.2 µM.

For `CCC(CC)CNCCCCn1nc2c(c1C(=O)O)CCc1cnccc1-2` [Example 197], the IC50 was 29.4 µM.

Regarding `COc1ccc(CC(=O)NCCCn2nc3c(c2C(=O)O)CCc2cnccc2-3)cc1` [Example 198], the half-maximal inhibitory concentration (IC50) came to 30.1 µM.

Turning to `N#CC1CCn2nc3c(c2C(=O)N1)CCc1cnccc1-3` (stereo not shown) [Example 199], the half-maximal inhibitory concentration (IC50) was found to be 33.3 µM.

`CC(C)S(=O)(=O)NCCCn1nc2c(c1C(=O)O)CCc1cnccc1-2` [Example 200]: the IC50 came out at 33.3 µM.

For the compound `NCCCn1nc2c(c1CCl)CCc1cnccc1-2` [Example 201], the IC50 came out at 33.5 µM.

For the compound `CC(C)(C)CCc1cc2c(cn1)CCc1c-2nn2c1C(=O)NCC2` [Example 202], the IC50 turned out to be 35.6 µM.

For `CCOC(=O)c1c2c(nn1CCN)-c1cc(Cl)ncc1CC2` [Example 204], the IC50 was determined as 36 µM.

Consider `O=C1NCCn2nc3c(c21)CCc1cnc(-c2ccc(OCc4ccccc4)cc2)cc1-3` [Example 205], for which the half-maximal inhibitory concentration (IC50) is 36.4 µM.

Take `O=C(O)c1c2c(nn1CC(O)CNCc1cccs1)-c1ccncc1CC2` (stereo not shown) [Example 206]: the half-maximal inhibitory concentration (IC50) came out at 36.8 µM.

As to `O=C(O)c1c2c(nn1CCCNc1cccnc1)-c1ccncc1CC2` [Example 208], the concentration for half-maximal inhibition (IC50) amounted to 39.4 µM.

For the compound `CCOC(=O)NC(=O)NCCCn1nc2c(c1C(=O)O)CCc1cnccc1-2` [Example 209], the IC50 amounted to 42.5 µM.

In the case of `NC(=O)C1CCN(CCCn2nc3c(c2C(=O)O)CCc2cnccc2-3)CC1` [Example 210], the 50% inhibitory concentration (IC50) was 47.9 µM.

With `NC(=O)CCCn1nc2c(c1C(=O)O)CCc1cnccc1-2` [Example 211], the IC50 amounted to 50.1 µM.

Take `c1ccc2ncc(-c3cc4c(cn3)CCc3c[nH]nc3-4)cc2c1` [Example 212]: the IC50 turned out to be 52 µM.

Take `CCCCNC(=O)NCCCn1nc2c(c1C(=O)O)CCc1cnccc1-2` [Example 213]: the 50% inhibitory concentration (IC50) was 53.5 µM.

In the case of `c1coc(-c2[nH]nc3c2CCc2cnccc2-3)c1` [Example 214], the IC50 was found to be 53.7 µM.

Regarding `O=C1NCCn2nc3c(c21)CCc1c-3ccnc1Nc1ccccc1` [Example 215], the IC50 came out at 53.8 µM.

For the compound `NCCCN1CCn2nc3c(c2C1=O)CCc1cnccc1-3` [Example 216], the IC50 was 54.8 µM.

As to `C=CCNC(=O)NCCCn1nc2c(c1C(=O)O)CCc1cnccc1-2` [Example 217], the IC50 came out at 55.3 µM.

Turning to `O=C(O)c1c2c(nn1CCCNCC(F)(F)F)-c1ccncc1CC2` [Example 218], the 50% inhibitory concentration (IC50) worked out at 56.3 µM.

As to `O=C1CCCn2nc3c(c21)CCc1cnccc1-3` [Example 219], the concentration for half-maximal inhibition (IC50) stood at 59.5 µM.

`CN(C)CCNc1cc2c(cn1)CCc1c-2nn2c1C(=O)NCC2` [Example 220]: the half-inhibitory concentration (IC50) was 60.7 µM.

Turning to `CCC(CC)CNCCn1nc2c(c1C(=O)O)CCc1cnccc1-2` [Example 221], the IC50 is 62.1 µM.

Turning to `C#Cc1cnc2c(c1)-c1nn(CCN)c(C(=O)OCC)c1CC2` [Example 222], the IC50 came out at 62.5 µM.

As for `O=C1NCCn2nc3c(c21)CCc1cnc(CCc2ccc(Cl)cc2)cc1-3` [Example 223], the half-maximal inhibitory concentration (IC50) stood at 63.2 µM.

For `O=C(O)c1[nH]nc2c1CCc1cnccc1-2` [Example 224], the IC50 worked out at 63.4 µM.

With `O=C1NCCn2nc3c(c21)CCc1cnc(N2CCNCC2)cc1-3` [Example 225], the half-maximal inhibitory concentration (IC50) came out at 64.9 µM.

Consider `O=C(Cc1cccs1)NCCCn1nc2c(c1C(=O)O)CCc1cnccc1-2` [Example 226], for which the IC50 is 66.1 µM.

Consider `O=C(NCCCn1nc2c(c1C(=O)O)CCc1cnccc1-2)c1ccccc1` [Example 227], for which the IC50 was 68 µM.

For `CN(C)CC(O)Cn1nc2c(c1C(=O)N(C)C)CCc1cnccc1-2` (stereo not shown) [Example 228], the half-inhibitory concentration (IC50) was 69.3 µM.

`O=C(O)c1c2c(nn1CC=NO)-c1ccncc1CC2` [Example 229]: the IC50 amounted to 71 µM.

On to `C=CCn1nc2c(c1C(=O)O)CCc1c[n+]([O-])ccc1-2` [Example 230], for which the IC50 came to 75.4 µM.

For the compound `Cn1nc2c(c1C(=O)O)CCc1cnccc1-2` [Example 231], the half-inhibitory concentration (IC50) is 76.6 µM.
